In ChEMBL document CHEMBL3808371, “Design, synthesis and biological evaluation of diaziridinyl quinone isoxazole hybrids” (Eur J Med Chem, 2016):

What was measured:
A549 [1] = experiment: Cytotoxicity against human A549 cells; type: functional, cell-based
[2] = Cytotoxicity against human PC3 cells; type: functional, cell-based; settings: PC-3
Micrococcus luteus [3] = experiment: Antimicrobial activity against Micrococcus luteus MTCC 2470 after 24 hrs by well diffusion method; type: functional; settings: MTCC 2470, 24 h
Raoultella planticola [4] = experiment: Antimicrobial activity against Klebsiella planticola MTCC 530 after 24 hrs by well diffusion method; type: functional; settings: MTCC 530, 24 h
[5] = Cytotoxicity against human PC3 cells after 72 hrs by XTT assay; type: functional, cell-based; settings: PC-3, 72 h
Candida albicans [6] = experiment: Fungicidal activity against Candida albicans MTCC 1637 after 24 hrs by serial dilution method; type: functional; settings: MTCC 1637, 24 h
Nakaseomyces glabratus [7] = experiment: Antimicrobial activity against Candida glabrata MTCC 3019 after 24 hrs by well diffusion method; type: functional; settings: MTCC 3019, 24 h
Candida albicans [8] = experiment: Antimicrobial activity against Candida albicans MTCC 3958 after 24 hrs by well diffusion method; type: functional; settings: MTCC 3958, 24 h
Candida albicans [9] = experiment: Fungicidal activity against Candida albicans MTCC 183 after 24 hrs by serial dilution method; type: functional; settings: MTCC 183, 24 h
[Candida] aaseri [10] = Antimicrobial activity against Candida aaseri MTCC 1962 after 24 hrs by well diffusion method; type: functional; settings: Yamadazyma aaseri, MTCC 1962, 24 h
Candida albicans [11] = experiment: Fungicidal activity against Candida albicans MTCC 7315 after 24 hrs by serial dilution method; type: functional; settings: MTCC 7315, 24 h
Staphylococcus aureus [12] = experiment: Bactericidal activity against Staphylococcus aureus MLS16 MTCC 2940 after 24 hrs by serial dilution method; type: functional; settings: MLS16 MTCC 2940, 24 h
Raoultella planticola [13] = experiment: Antibiofilm activity against Klebsiella planticola MTCC 530 after 24 hrs by crystal violet staining based assay; type: functional, organism-based; settings: MTCC 530, 24 h
Nakaseomyces glabratus [14] = experiment: Fungicidal activity against Candida glabrata MTCC 3019 after 24 hrs by serial dilution method; type: functional; settings: MTCC 3019, 24 h
Pichia kudriavzevii [15] = experiment: Antimicrobial activity against Candida krusei MTCC 3020 after 24 hrs by well diffusion method; type: functional; settings: MTCC 3020, 24 h
Candida albicans [16] = experiment: Fungicidal activity against Candida albicans MTCC 227 after 24 hrs by serial dilution method; type: functional; settings: MTCC 227, 24 h
Candida albicans [17] = experiment: Antimicrobial activity against Candida albicans MTCC 183 after 24 hrs by well diffusion method; type: functional; settings: MTCC 183, 24 h
Candida albicans [18] = experiment: Antimicrobial activity against Candida albicans MTCC 854 after 24 hrs by well diffusion method; type: functional; settings: MTCC 854, 24 h
Candida parapsilosis [19] = experiment: Antimicrobial activity against Candida parapsilosis MTCC 1744 after 24 hrs by well diffusion method; type: functional; settings: Lodderomyces parapsilosis, MTCC 1744, 24 h
Staphylococcus aureus [20] = experiment: Bactericidal activity against Staphylococcus aureus MTCC 96 after 24 hrs by serial dilution method; type: functional; settings: MTCC 96, 24 h
Candida albicans [21] = experiment: Antimicrobial activity against Candida albicans MTCC 4748 after 24 hrs by well diffusion method; type: functional; settings: MTCC 4748, 24 h
Candida albicans [22] = experiment: Fungicidal activity against Candida albicans MTCC 4748 after 24 hrs by serial dilution method; type: functional; settings: MTCC 4748, 24 h
Bacillus subtilis [23] = experiment: Antibiofilm activity against Bacillus subtilis MTCC 121 after 24 hrs by crystal violet staining based assay; type: functional, organism-based; settings: MTCC 121, 24 h
Micrococcus luteus [24] = experiment: Bactericidal activity against Micrococcus luteus MTCC 2470 after 24 hrs by serial dilution method; type: functional; settings: MTCC 2470, 24 h
Staphylococcus aureus [25] = experiment: Antimicrobial activity against Staphylococcus aureus MTCC 96 after 24 hrs by well diffusion method; type: functional; settings: MTCC 96, 24 h
Candida albicans [26] = experiment: Fungicidal activity against Candida albicans MTCC 854 after 24 hrs by serial dilution method; type: functional; settings: MTCC 854, 24 h
Candida albicans [27] = experiment: Antimicrobial activity against Candida albicans MTCC 227 after 24 hrs by well diffusion method; type: functional; settings: MTCC 227, 24 h
Pseudomonas aeruginosa = experiment: Antimicrobial activity against Pseudomonas aeruginosa MTCC 2453 after 24 hrs by well diffusion method; type: functional; settings: MTCC 2453, 24 h
Candida albicans [28] = experiment: Antimicrobial activity against Candida albicans MTCC 1637 after 24 hrs by well diffusion method; type: functional; settings: MTCC 1637, 24 h
Raoultella planticola [29] = experiment: Bactericidal activity against Klebsiella planticola MTCC 530 after 24 hrs by serial dilution method; type: functional; settings: MTCC 530, 24 h
Candida parapsilosis [30] = experiment: Fungicidal activity against Candida parapsilosis MTCC 1744 after 24 hrs by serial dilution method; type: functional; settings: Lodderomyces parapsilosis, MTCC 1744, 24 h
Staphylococcus aureus [31] = experiment: Antibiofilm activity against Staphylococcus aureus MLS16 MTCC 2940 after 24 hrs by crystal violet staining based assay; type: functional, organism-based; settings: MLS16 MTCC 2940, 24 h
Candida albicans [32] = experiment: Antimicrobial activity against Candida albicans MTCC 3017 after 24 hrs by well diffusion method; type: functional; settings: MTCC 3017, 24 h
Candida albicans [33] = experiment: Fungicidal activity against Candida albicans MTCC 3018 after 24 hrs by serial dilution method; type: functional; settings: MTCC 3018, 24 h
Candida albicans [34] = experiment: Antimicrobial activity against Candida albicans MTCC 3018 after 24 hrs by well diffusion method; type: functional; settings: MTCC 3018, 24 h
Staphylococcus aureus [35] = experiment: Antibiofilm activity against Staphylococcus aureus MTCC 96 after 24 hrs by crystal violet staining based assay; type: functional, organism-based; settings: MTCC 96, 24 h
Bacillus subtilis [36] = experiment: Antimicrobial activity against Bacillus subtilis MTCC 121 after 24 hrs by well diffusion method; type: functional; settings: MTCC 121, 24 h
Pichia kudriavzevii [37] = experiment: Fungicidal activity against Candida krusei MTCC 3020 after 24 hrs by serial dilution method; type: functional; settings: MTCC 3020, 24 h
Pichia sporocuriosa [38] = experiment: Antimicrobial activity against Issatchenkia hanoiensis MTCC 4755 after 24 hrs by well diffusion method; type: functional; settings: MTCC 4755, 24 h
Candida albicans [39] = experiment: Fungicidal activity against Candida albicans MTCC 3958 after 24 hrs by serial dilution method; type: functional; settings: MTCC 3958, 24 h
Candida albicans [40] = experiment: Fungicidal activity against Candida albicans MTCC 3017 after 24 hrs by serial dilution method; type: functional; settings: MTCC 3017, 24 h
Candida albicans [41] = experiment: Antimicrobial activity against Candida albicans MTCC 7315 after 24 hrs by well diffusion method; type: functional; settings: MTCC 7315, 24 h
Staphylococcus aureus [42] = experiment: Antimicrobial activity against Staphylococcus aureus MLS16 MTCC 2940 after 24 hrs by well diffusion method; type: functional; settings: MLS16 MTCC 2940, 24 h
Micrococcus luteus [43] = experiment: Antibiofilm activity against Micrococcus luteus MTCC 2470 after 24 hrs by crystal violet staining based assay; type: functional, organism-based; settings: MTCC 2470, 24 h
Bacillus subtilis [44] = experiment: Bactericidal activity against Bacillus subtilis MTCC 121 after 24 hrs by serial dilution method; type: functional; settings: MTCC 121, 24 h
A549 [45] = experiment: Cytotoxicity against human A549 cells after 72 hrs by XTT assay; type: functional, cell-based; settings: A549, 72 h
Pichia sporocuriosa [46] = experiment: Fungicidal activity against Issatchenkia hanoiensis MTCC 4755 after 24 hrs by serial dilution method; type: functional; settings: MTCC 4755, 24 h
Escherichia coli = experiment: Antimicrobial activity against Escherichia coli MTCC 739 after 24 hrs by well diffusion method; type: functional; settings: MTCC 739, 24 h
[Candida] aaseri [47] = Fungicidal activity against Candida aaseri MTCC 1962 after 24 hrs by serial dilution method; type: functional; settings: Yamadazyma aaseri, MTCC 1962, 24 h

COc1ccc(C[C@H](N)C(=O)N[C@H]2[C@@H](O)[C@H](n3cnc4c(N(C)C)ncnc43)O[C@@H]2CO)cc1 [PUROMYCIN]
600 nM: IC50 (A549 [1])
700 nM: IC50 [2]

CCCN(C)C(=O)c1ccc(-c2cc(C3=C(N4CC4)C(=O)C=C(N4CC4)C3=O)no2)s1
31.2 µg/mL: MFC (Candida albicans [11]) | MBC (Staphylococcus aureus [12]) | MFC (Nakaseomyces glabratus [14]) | MIC (Candida albicans [17]) | MIC (Candida albicans [21]) | MBC (Micrococcus luteus [24]) | MFC (Candida parapsilosis [30]) | MIC (Candida albicans [34]) | MFC (Pichia kudriavzevii [37]) | MFC (Candida albicans [40])
10600 nM: IC50 (Staphylococcus aureus [31])
3500 nM: IC50 (Raoultella planticola [13])
8900 nM: IC50 (Micrococcus luteus [43])
7.8 µg/mL: MIC (Raoultella planticola [4]) | MIC ([Candida] aaseri [10]) | MIC (Staphylococcus aureus [25]) | MIC (Candida albicans [32]) | MBC (Bacillus subtilis [44])
> 125 µg/mL: MIC (Pseudomonas aeruginosa) | MIC (Escherichia coli)
125 µg/mL: MFC (Candida albicans [6]) | MFC (Candida albicans [16]) | MFC (Candida albicans [26]) | MFC (Candida albicans [33]) | MFC (Candida albicans [39])
3.9 µg/mL: MIC (Bacillus subtilis [36])
2700 nM: IC50 (A549 [45])
15.6 µg/mL: MIC (Micrococcus luteus [3]) | MIC (Nakaseomyces glabratus [7]) | MIC (Pichia kudriavzevii [15]) | MIC (Candida parapsilosis [19]) | MBC (Staphylococcus aureus [20]) | MBC (Raoultella planticola [29]) | MIC (Pichia sporocuriosa [38]) | MIC (Candida albicans [41]) | MIC (Staphylococcus aureus [42]) | MFC ([Candida] aaseri [47])
62.5 µg/mL: MIC (Candida albicans [8]) | MFC (Candida albicans [9]) | MIC (Candida albicans [18]) | MFC (Candida albicans [22]) | MIC (Candida albicans [27]) | MIC (Candida albicans [28]) | MFC (Pichia sporocuriosa [46])
4600 nM: IC50 (Staphylococcus aureus [35])
600 nM: IC50 [5]
2200 nM: IC50 (Bacillus subtilis [23])

O=C1C=C(N2CC2)C(=O)C(c2cc(-c3ccc(C(=O)N4CCOCC4)s3)on2)=C1N1CC1
125 µg/mL: MFC (Candida albicans [11]) | MFC (Nakaseomyces glabratus [14]) | MFC (Candida albicans [22]) | MFC (Candida albicans [33]) | MFC ([Candida] aaseri [47])
1400 nM: IC50 [5]
31.2 µg/mL: MIC (Nakaseomyces glabratus [7]) | MFC (Candida albicans [9]) | MIC ([Candida] aaseri [10]) | MFC (Candida albicans [16]) | MIC (Candida albicans [21]) | MBC (Micrococcus luteus [24]) | MIC (Candida albicans [28]) | MFC (Pichia sporocuriosa [46])
1900 nM: IC50 (Staphylococcus aureus [31])
15.6 µg/mL: MIC (Micrococcus luteus [3]) | MIC (Candida albicans [8]) | MIC (Candida albicans [17]) | MIC (Candida parapsilosis [19]) | MFC (Candida albicans [26]) | MBC (Raoultella planticola [29]) | MFC (Pichia kudriavzevii [37]) | MIC (Pichia sporocuriosa [38]) | MFC (Candida albicans [40])
> 125 µg/mL: MIC (Pseudomonas aeruginosa) | MIC (Escherichia coli)
1500 nM: IC50 (A549 [45])
2500 nM: IC50 (Staphylococcus aureus [35])
5100 nM: IC50 (Raoultella planticola [13])
62.5 µg/mL: MFC (Candida albicans [6]) | MFC (Candida parapsilosis [30]) | MIC (Candida albicans [34]) | MFC (Candida albicans [39]) | MIC (Candida albicans [41])
9800 nM: IC50 (Micrococcus luteus [43])
3.9 µg/mL: MBC (Staphylococcus aureus [12]) | MIC (Staphylococcus aureus [25]) | MIC (Bacillus subtilis [36]) | MIC (Staphylococcus aureus [42]) | MBC (Bacillus subtilis [44])
2800 nM: IC50 (Bacillus subtilis [23])
7.8 µg/mL: MIC (Raoultella planticola [4]) | MIC (Pichia kudriavzevii [15]) | MIC (Candida albicans [18]) | MBC (Staphylococcus aureus [20]) | MIC (Candida albicans [27]) | MIC (Candida albicans [32])
